Earlier results on 86 molecules are cited in the CATMoS acute toxicity set (Mansouri et al. 2021).

A word on the LD50: it is the dose at which mortality reaches 50%.

The nature of the data set: rat acute oral toxicity. The note with it: in vivo.
Regarding `O=[N+]([O-])c1cc([N+](=O)[O-])c(Nc2c(Br)cc(Br)cc2Br)c(C(F)(F)F)c1`, the LD50 was 4.43 mg/kg. With `Sc1nc2ccccc2s1`, the LD50 is 100 mg/kg. With `CCOc1ccc2c(c1)C(C)=CC(C)(C)N2`, the 50% lethal dose (LD50) was 3580 mg/kg. Consider `O=C1OCC(CCl)O1` (stereo unspecified), for which the LD50 is 80 mg/kg.

Take `CCN(CCO)c1cccc(C)c1`: the LD50 is 1370 mg/kg. On to `COCCOC(=O)C1=C(C)NC(C)=C(C(=O)OC(C)C)C1c1cccc([N+](=O)[O-])c1` (stereo unspecified), for which the LD50 was 2740 mg/kg. With `Cc1ccc(C)c(N)c1`, the LD50 is 1300 mg/kg. In the case of `CBr`, the LD50 was 214 mg/kg. `CC(C)COCC(CN(Cc1ccccc1)c1ccccc1)N1CCCC1` (stereo unspecified): the LD50 was 6850 mg/kg. On to `CC(C)c1cccc(C(C)C)c1O`, for which the LD50 was 500 mg/kg. With `C[C@]12C=CC(=O)C=C1CC[C@@H]1[C@@H]2[C@@H](O)C[C@@]2(C)[C@H]1CC[C@]2(O)C(=O)COC(=O)CCCc1ccc(N(CCCl)CCCl)cc1`, the LD50 was 530 mg/kg.

In the case of `C/N=N/Nc1ccccc1`, the LD50 was 420 mg/kg. Regarding `CN(C)CCC(c1ccc(Br)cc1)c1ccccn1` (stereo unspecified), the LD50 is 318 mg/kg. Turning to `CC(=O)c1cccc(N=Nc2ccc(N(C)C)cc2)c1`, the LD50 is 4820 mg/kg. On to `CCN(CC)CCNC(=O)c1ccc(NS(C)(=O)=O)cc1`, for which the 50% lethal dose (LD50) was 3200 mg/kg. As for `CCCCCCCCCCCCCN1CC(C)OC(C)C1` (stereo unspecified), the LD50 was 650 mg/kg. In the case of `CN(C)CCN1C(=O)c2ccccc2Nc2cc(Cl)ccc21`, the LD50 is 242 mg/kg. For `CN1CCC(OC2c3ccccc3CCc3ccccc32)CC1`, the LD50 was 1500 mg/kg. Take `O=C(O)c1ccc2ccccc2c1`: the LD50 was 4500 mg/kg. Regarding `N#Cc1cc([N+](=O)[O-])ccc1Cl`, the LD50 is 3200 mg/kg. Regarding `ClCC(Cl)=C(Cl)C(Cl)Cl`, the LD50 was 472 mg/kg. Turning to `CCCOC(C1=NCCCN1)c1ccccc1` (stereo unspecified), the LD50 is 625 mg/kg. Take `Clc1ccc(CO/N=C(\Cn2ccnc2)c2ccc(Cl)cc2Cl)c(Cl)c1`: the LD50 is 2460 mg/kg.

Regarding `ClC(Cl)=C(c1ccc(Cl)cc1)c1ccc(Cl)cc1`, the LD50 is 880 mg/kg. Consider `OCCCO`, for which the median lethal dose (LD50) was 15000 mg/kg.

On to `O=C(Cl)c1cccc(S(=O)(=O)Cl)c1`, for which the LD50 was 1780 mg/kg. In the case of `CN(Sc1ccc(Cl)c(Cl)c1)C(=O)Oc1cccc2c1OC(C)(C)C2`, the LD50 is 25 mg/kg. As for `C=CBr`, the LD50 is 500 mg/kg.

For `CC1=CC=C(C(C)C)CC1`, the LD50 was 1680 mg/kg. As for `CC(C)=NN=C(C)C`, the LD50 is 423 mg/kg. As to `CCCCNc1ccc2c(c1)C(=O)N(CCN(CC)CC)C2=O`, the LD50 is 580 mg/kg. For the molecule `O=C(O)c1cc2ccccc2c(Cc2c(O)c(C(=O)OCCOCCN3CCN(C(c4ccccc4)c4ccc(Cl)cc4)CC3)cc3ccccc23)c1O` (stereo unspecified), the LD50 was 1740 mg/kg. As to `N=c1ccn(O)cc1`, the LD50 was 75 mg/kg. Take `Cc1ccc(N)cc1[N+](=O)[O-]`: the LD50 is 6860 mg/kg. `Nc1cc(N)cc(C(F)(F)F)c1`: the LD50 is 380 mg/kg. On to `Cc1cc2[nH]c(C(F)(F)F)nc2cc1Cl`, for which the LD50 is 55 mg/kg.

With `COc1nccnc1NS(=O)(=O)c1ccc(N)cc1`, the LD50 was 2740 mg/kg. In the case of `CCOc1ccc2c(OS(=O)(=O)O)c(-c3sc4cc(OCC)ccc4c3OS(=O)(=O)O)sc2c1`, the LD50 was 6700 mg/kg.

Consider `C=CC(=O)OCCCCCCCCCC`, for which the LD50 was 6460 mg/kg. In the case of `CCn1nc(C(=O)O)c(=O)c2cc3c(cc21)OCO3`, the LD50 was 3610 mg/kg.

As to `CCn1c2c(c3cccc(N)c31)CCCC2`, the LD50 was 1090 mg/kg. Turning to `Nc1nncs1`, the 50% lethal dose (LD50) is 253 mg/kg.

As to `O=C(O)C1=CCCN(CCOC(c2ccc(C(F)(F)F)cc2)c2ccc(C(F)(F)F)cc2)C1`, the LD50 was 894 mg/kg. As to `C[Si]1(C)N[Si](C)(C)N[Si](C)(C)N1`, the LD50 was 500 mg/kg. Turning to `CC(=O)Oc1ccc(C2(c3ccc(OC(C)=O)cc3)Oc3ccccc3NC2=O)cc1`, the median lethal dose (LD50) is 8000 mg/kg. With `CNC(C)Cc1ccc(Cl)cc1` (stereo unspecified), the LD50 was 110 mg/kg. Consider `COP(=S)(OC)SC`, for which the LD50 is 15 mg/kg.

`Cc1cc(S(=O)(=O)O)cc(C)c1O`: the LD50 was 2650 mg/kg. As for `CN(C)C(=O)Oc1ccc[n+](C)c1`, the LD50 was 37.5 mg/kg. Turning to `CCCCCCCCN1CCCC1=O`, the LD50 is 2050 mg/kg.

As for `CCS(=O)CSP(=S)(OC(C)C)OC(C)C` (stereo unspecified), the LD50 is 25 mg/kg. Turning to `CN(C)CCC1Oc2ccccc2Nc2ccccc21` (stereo unspecified), the 50% lethal dose (LD50) was 1400 mg/kg. For `CCCCCCCCCCCCCCN(CC)C(C)(CO)CO`, the LD50 is 1500 mg/kg. Consider `CN(C)C(=O)COC(=O)Cc1ccc(OC(=O)c2ccc(NC(=N)N)cc2)cc1`, for which the median lethal dose (LD50) was 3000 mg/kg. For the molecule `CC(C)C12CCC(C)(CC1)O2`, the 50% lethal dose (LD50) was 3100 mg/kg. As to `CC(C)(C)N(CCO)CCO`, the 50% lethal dose (LD50) was 2720 mg/kg. Turning to `Oc1cc2c3c(c1)c1cc4c(cc1c[n+]3CC2)OCO4`, the LD50 is 90 mg/kg. `CCCCc1ccc2c(S(=O)(=O)O)cc(CCCC)cc2c1`: the LD50 was 1250 mg/kg. Consider `CC(C)(C)C(=O)CCC1C(=O)N(c2ccccc2)N(c2ccccc2)C1=O`, for which the LD50 is 455 mg/kg. With `N#CCN(CC#N)N=O`, the LD50 was 163 mg/kg. Regarding `CC(C)Cc1ccc(C(C)C(=O)OCc2ccccn2)cc1` (stereo unspecified), the LD50 was 1440 mg/kg. Regarding `CC/C=C1/OC(=O)c2ccccc21`, the LD50 was 1650 mg/kg.

On to `CCON(CC)N=O`, for which the LD50 was 1000 mg/kg. As for `CC(C)(N)CO`, the LD50 is 2900 mg/kg. For the molecule `CON=CC1=CCCNC1`, the LD50 was 12 mg/kg.

Consider `Nc1ccc2cc(S(=O)(=O)O)c(/N=N/c3ccc(-c4ccc(/N=N/c5c(S(=O)(=O)O)cc6cc(S(=O)(=O)O)cc(N)c6c5O)cc4)cc3)c(O)c2c1`, for which the 50% lethal dose (LD50) was 6450 mg/kg. On to `CC(C)CC(C)OC(=O)CC(C(=O)OC(C)CC(C)C)S(=O)(=O)O` (stereo unspecified), for which the LD50 was 1750 mg/kg. For `CNc1nsc2ccccc12`, the median lethal dose (LD50) was 576 mg/kg.

On to `CCOC(=O)OC(C)OC1=C(C(=O)Nc2ccccn2)N(C)S(=O)(=O)c2ccccc21` (stereo unspecified), for which the LD50 is 747 mg/kg.

Turning to `O=c1ccc2ccc3occc3c2o1`, the LD50 was 322 mg/kg. Consider `C=COP(=O)(OCC)OC(CCl)c1cc(Cl)c(Cl)cc1Cl` (stereo unspecified), for which the LD50 is 1100 mg/kg. For the molecule `CCC1OCSC1=NOC(=O)NC` (stereo unspecified), the LD50 was 24 mg/kg. For `O=[N+]([O-])c1ccc(Oc2c(Cl)cc(Cl)cc2Cl)cc1`, the LD50 was 10800 mg/kg.

Turning to `CN(Sc1ccc(F)cc1)C(=O)Oc1cccc2c1OC(C)(C)C2`, the LD50 is 25 mg/kg. Take `CC(C)(C)N(Cl)Cl`: the LD50 was 780 mg/kg. Consider `C=C[C@]1(C)C[C@@H](OC(=O)CSCCN(CC)CC)[C@]2(C)[C@H](C)CC[C@]3(CCC(=O)[C@H]32)[C@@H](C)[C@@H]1O`, for which the LD50 is 2230 mg/kg. With `CC1=CCC2CC1(S)C2(C)C` (stereo unspecified), the LD50 is 3000 mg/kg. Turning to `CC1(CO)CN(c2ccccc2)NC1=O` (stereo unspecified), the LD50 was 566 mg/kg. On to `CC(O)c1cc(N)cc(C(F)(F)F)c1` (stereo unspecified), for which the median lethal dose (LD50) was 880 mg/kg. As for `COCCOC(=O)C1=C(C)NC(C)=C(C(=O)OC/C=C/c2ccccc2)C1c1cccc([N+](=O)[O-])c1` (stereo unspecified), the median lethal dose (LD50) was 4410 mg/kg.

Consider `Cc1ccc2c(c1)CC(=O)c1cc(C(C)C(=O)OCCOCCO)ccc1O2` (stereo unspecified), for which the LD50 was 219 mg/kg. Take `CCCn1cnc2c1c(=O)n(CCCCC(C)=O)c(=O)n2C`: the LD50 was 940 mg/kg. Take `CCC(CC)(C(=O)O)c1cccc2ccccc12`: the median lethal dose (LD50) was 1080 mg/kg. Take `C/C(=N/NC(=O)c1ccncc1)c1ccco1`: the LD50 was 110 mg/kg. In the case of `COc1cc(N)c2c(c1N)C(=O)c1ccccc1C2=O`, the LD50 is 891 mg/kg.

For `CCCCN(C)N=O`, the 50% lethal dose (LD50) was 130 mg/kg.
